What was measured:
[1] = tested on: WT1-MYCN-PLK1 axis in IPF fibroblasts; assay: PLK1, MYCN and WT1 protein levels in IPF fibroblast lysates by western blot; assay type: cell-based, human; details: volasertib 1 μM for 48 hours, western blot normalized to GAPDH, FIG. 17
Experimental: FIG. 17. Volasertib treatment attenuates the WT1-MYCN-PLK1 axis in IPF fibroblasts. IPF fibroblasts were treated with vehicle or volasertib (1 μM) for 48 hours and measured PLK1, MYCN and WT1 protein levels in cell lysates using western blots and normalized to GAPDH. *P<0.05.
(§1) Pharmacological inhibition of PLK1 attenuates the WT1-MYCN-PLK1 axis. […] To determine in vivo therapeutic effects of volasertib, TGFα mice were treated simultaneously with volasertib (30 mg/kg; QD) and Dox for five days, a period that leads to activation of WT1, MYCN and PLK1 in fibroblasts. […] Together, in vivo studies have established that inhibiting PLK1 is sufficient to attenuate the WT1-MYCN-PLK1 axis involved in fibroblast activation and pulmonary fibrosis.

[2] = tested on: severe fibrotic lung disease; assay: Therapeutic efficacy against severe fibrotic lung disease in two alternative mouse models (TGFα transgenic, repeated bleomycin); assay type: in vivo; details: compared to FDA-approved nintedanib therapy
Description: WT1-driven anti-apoptotic genes (BCL3, BCL2L1, etc.), MYCN, and PLK1 were previously unknown to have a role in the pathogenesis of lung scarring, in fibroproliferation, FMT, survival, and ECM production. […] A novel clinical application for volasertib in the area of pulmonary fibrosis may include volasertib therapy to prevent progression or reverse established fibrotic lung disease. Applicant's studies utilize a novel transgenic mouse model in which the pro-fibrotic growth factor TGFα is selectively and temporally overexpressed in the lung epithelium, resulting in progressive subpleural scarring, similar to the pattern seen in human IPF, and an alternative mouse model of fibrosis using repeated doses of bleomycin. Applicant's data provide compelling support that inhibiting the MYCN-PLK1 axis may be effective in arresting fibrotic lung remodeling, and may be used in patients with pulmonary fibrosis.

PLK1 = PLK1 (Homo sapiens, UniProt P53350); details: cited from earlier work
IPF fibroblasts [3] = assay: CDK4 gene expression in IPF fibroblasts by RT-PCR; assay type: cell-based, human; details: vehicle or volasertib for 16 hours, FIG. 20
[4] = tested on: TGFα-induced pulmonary fibrosis; assay: TGFα-induced pulmonary fibrosis in TGFα mice on Dox, lung gene expression; assay type: in vivo; details: volasertib 30 mg/kg QD with Dox for five days
Description: FIG. 18. In vivo inhibition of PLK1 with volasertib attenuates ECM gene expression during TGFα-induced pulmonary fibrosis.
FIG. 19. In vivo inhibition of PLK1 with volasertib attenuates MYCN and PLK1 during TGFα induced pulmonary fibrosis.
FIG. 21. In vivo inhibition with volasertib attenuates ECM gene expression during TGFα-induced pulmonary fibrosis. *P<0.05.
as §1

[5] = H&E stainings for toxicity in volasertib-treated TGFα mice; assay type: in vivo; details: at the doses tested (30 mg/kg QD, five days), data not shown
Experimental: as §1

IPF fibroblasts [6] = assay: ECM-associated gene transcripts in IPF fibroblasts by RT-PCR; assay type: cell-based, human; details: vehicle or volasertib for 16 hours, FIG. 16
Experimental: FIG. 16. Inhibition of PLK1 using volasertib attenuates ECM gene expression. IPF fibroblasts were treated with vehicle or volasertib for 16 hours and ECM-associated gene transcripts Col1α, Col3α1, FN1, and αSMA) were measured using RT-PCR. *p<0.05.
as §1

Sequence of PLK1 (P53350 whole entry, species assumed): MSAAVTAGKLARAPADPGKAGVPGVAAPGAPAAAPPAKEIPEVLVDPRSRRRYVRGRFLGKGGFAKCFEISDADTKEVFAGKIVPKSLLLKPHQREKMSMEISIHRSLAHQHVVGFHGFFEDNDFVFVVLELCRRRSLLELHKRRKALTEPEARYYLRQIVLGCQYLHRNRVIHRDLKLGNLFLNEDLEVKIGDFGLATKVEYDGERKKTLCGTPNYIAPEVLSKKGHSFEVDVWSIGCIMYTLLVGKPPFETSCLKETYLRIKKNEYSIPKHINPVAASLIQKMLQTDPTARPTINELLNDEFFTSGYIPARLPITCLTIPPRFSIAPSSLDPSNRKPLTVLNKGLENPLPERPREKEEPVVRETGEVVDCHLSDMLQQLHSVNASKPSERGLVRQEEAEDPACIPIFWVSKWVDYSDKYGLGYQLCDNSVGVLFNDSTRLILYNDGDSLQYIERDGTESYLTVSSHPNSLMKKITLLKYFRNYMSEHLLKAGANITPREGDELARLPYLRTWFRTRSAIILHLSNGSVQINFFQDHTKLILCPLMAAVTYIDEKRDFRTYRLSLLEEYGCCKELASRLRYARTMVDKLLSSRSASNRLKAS

CC[C@@H]1C(=O)N(C)c2cnc(Nc3ccc(C(=O)N[C@H]4CC[C@H](N5CCN(CC6CC6)CC5)CC4)cc3OC)nc2N1C(C)C [volasertib, N-[trans-4-[4-(cyclopropylmethyl)-1-piperazinyl]cyclohexyl]-4-[[(7R)-7-ethyl-5,6,7,8-tetrahydro-5-methyl-8-(1-methylethyl)-6-oxo-2-pteridinyl]amino]-3-methoxy-benzamide]
MYCN, WT1 and PLK1 levels [1]: sufficient to attenuate MYCN, WT1 and PLK1 levels | therapeutic efficacy against severe fibrotic lung disease [2]: demonstrated therapeutic efficacy | binds and inhibits PLK1 (PLK1): at nanomolar doses | CDK4 gene expression (IPF fibroblasts [3]): attenuates CDK4 gene expression | MYCN and PLK1 levels in lungs ([4]; FIG. 19): able to attenuate both MYCN and PLK1 levels | ECM gene expression including Col1α1, Col3a1, and FN1 ([4]; vs vehicle-treated fibrosis controls, FIG. 18): attenuated ECM gene expression | toxicity by H&E stainings [5]: no toxicity | ECM gene expression (Col1α, Col3α1, FN1, αSMA transcripts) (IPF fibroblasts [6]): sufficient to attenuate ECM gene expression

Source: patent US12622911B2, “Methods and compositions for the treatment of pulmonary fibrosis using volasertib” (Children's Hospital Medical Center, priority 2021, dated 2026)
